# Calls of active or inactive are those of the source. The calls are words filed in the database; no cut-off is given here.
# Legend:
# W256 = assay: Antitumor activity against rat Walker 256 cells allografted in Sprague-Dawley rat at 2.5 mg/kg/day, ip relative to control; assay type: functional; conditions: route intraperitoneal
# Ehrlich [1] = assay: Antitumor activity against mouse EAC cells allografted in CF1 mouse assessed as survival at 33.3 mg/kg/day, ip after 7 days; assay type: functional, organism-based
# [2] = Cytotoxicity against human Hep2 cells; assay type: functional; conditions: HEp-2, read-out: ED50 (the source's name)
# P388 = assay: Antitumor activity against mouse P388 cells allografted in DBA/2 mouse at 25 mg/kg/day, ip relative to control; assay type: functional; conditions: route intraperitoneal
# Ehrlich [3] = assay: Antitumor activity against mouse EAC cells allografted in CF1 mouse assessed as tumor growth inhibition at 33.3 mg/kg/day, ip after 7 days; assay type: functional; conditions: 168 h, route intraperitoneal, read-out: TGI
# [4] = Stability of the compound assessed as reactivity with reduced glutathione at 28 mg after 16 hrs by NMR analysis; assay type: physicochemical
# [5] = Stability of the compound assessed as reactivity with L-cysteine by NMR analysis; assay type: physicochemical
# [6] = Stability of the compound assessed as reactivity with histidine at 28 mg after 7 days by NMR analysis; assay type: physicochemical; conditions: 168 h
# Ehrlich [7] = assay: Antitumor activity against mouse EAC cells assessed as tissue SH stimulation at 0.6 mg measured on day 8 by Ellman method relative to control; assay type: functional
# Ehrlich [8] = assay: Antitumor activity against mouse EAC cells allografted in CF1 mouse assessed as free lysosomal DNAse activity at 0.125 mg/day administered from day 5 to day 7 measured on day 8 relative to control; assay type: functional
# [9] = Stability of the compound assessed as reactivity with L-cysteine at 10 mg after 4 hrs by NMR analysis; assay type: physicochemical
# [10] = Binding affinity to dGTP (unknown origin) at 0.015 ug at pH 7.2 after 24 hrs by UV-spectrophotometry
# [11] = Binding affinity to dATP (unknown origin) at 0.015 ug by UV-spectrophotometry
# [12] = Binding affinity to dAMP (unknown origin) at 0.015 ug by UV-spectrophotometry
# Ehrlich [13] = assay: Antitumor activity against mouse EAC cells allografted in CF1 mouse assessed as ascitocrit count per mililitre of fluid at 0.125 mg/day administered from day 5 to day 7 measured on day 8 by hemocytometry relative to control; assay type: functional
# [14] = Stability of the compound assessed as reactivity with oxidized glutathione at 10 mg after 4 hrs by NMR analysis; assay type: physicochemical
# Ehrlich [15] = assay: Antitumor activity against mouse EAC cells allografted in CF1 mouse assessed as cell viability at 0.125 mg/day administered from day 5 to day 7 measured on day 8 by trypan blue assay relative to control; assay type: functional, cell-based
# Ehrlich [16] = assay: Antitumor activity against mouse EAC cells allografted in CF1 mouse assessed as [gamma-32P] incorporation into histone at 0.125 mg/day administered from day 5 to day 7 measured on day 8 relative to control; assay type: functional
# Ehrlich [17] = assay: Antitumor activity against mouse EAC cells assessed as nuclear DNA polymerase activity at 0.6 mg measured on day 8 relative to control; assay type: functional
# [18] = Binding affinity to dGMP (unknown origin) by NMR analysis
# Ehrlich [19] = assay: Antitumor activity against mouse EAC cells allografted in CF1 mouse assessed as [gamma-32P] incorporation into nonhistone at 0.125 mg/day administered from day 5 to day 7 measured on day 8 relative to control; assay type: functional
# Ehrlich [20] = assay: Antitumor activity against mouse EAC cells allografted in CF1 mouse assessed as nuclear DNA polymerase activity at 0.125 mg/day administered from day 5 to day 7 measured on day 8 relative to control; assay type: functional
# Ehrlich [21] = assay: Antitumor activity against mouse EAC cells allografted in CF1 mouse assessed as DNA content at 0.125 mg/day administered from day 5 to day 7 measured on day 8 by UV-spectrophotometry relative to control; assay type: functional
# [22] = Stability of the compound assessed as reactivity with reduced glutathione at 10 mg after 4 hrs by NMR analysis; assay type: physicochemical
# [23] = Binding affinity to dGMP (unknown origin) at 0.015 ug at pH 7.2 after 24 hrs by UV-spectrophotometry
# [24] = Binding affinity to DNA (unknown origin) at 0.015 ug at pH 7.2 after 24 hrs by UV-spectrophotometry
# Ehrlich [25] = assay: Antitumor activity against mouse EAC cells allografted in CF1 mouse assessed as [methyl-14C]thymidine incorporation to DNA at 0.125 mg/day administered from day 5 to day 7 measured on day 8 by scintillation counting analysis relative to control; assay type: functional
# Ehrlich [26] = assay: Antitumor activity against mouse EAC cells allografted in CF1 mouse assessed as chromatin protein content at 0.125 mg/day administered from day 5 to day 7 measured on day 8 relative to control; assay type: functional
# Ehrlich [27] = assay: Antitumor activity against mouse EAC cells allografted in CF1 mouse assessed as 3',5' cAMP level at 0.125 mg/day administered from day 5 to day 7 measured on day 8 by RIA relative to control; assay type: functional
# Ehrlich [28] = assay: Antitumor activity against mouse EAC cells allografted in CF1 mouse assessed as cell viability at 0.25 mg/day administered from day 5 to day 7 measured on day 8 by trypan blue assay relative to control; assay type: functional, cell-based
# Ehrlich [29] = assay: Antitumor activity against mouse EAC cells allografted in CF1 mouse assessed as chromatin protein content at 0.25 mg/day administered from day 5 to day 7 measured on day 8 relative to control; assay type: functional
# Ehrlich [30] = assay: Antitumor activity against mouse EAC cells allografted in CF1 mouse assessed as free lysosomal DNAse activity at 0.25 mg/day administered from day 5 to day 7 measured on day 8 relative to control; assay type: functional
# Ehrlich [31] = assay: Antitumor activity against mouse EAC cells allografted in CF1 mouse assessed as nuclear DNA polymerase activity at 0.25 mg/day administered from day 5 to day 7 measured on day 8 relative to control; assay type: functional
# Ehrlich [32] = assay: Antitumor activity against mouse EAC cells allografted in CF1 mouse assessed as [gamma-32P] incorporation into histone at 0.25 mg/day administered from day 5 to day 7 measured on day 8 relative to control; assay type: functional
# Ehrlich [33] = assay: Antitumor activity against mouse EAC cells allografted in CF1 mouse assessed as 3',5' cAMP level at 0.25 mg/day administered from day 5 to day 7 measured on day 8 by RIA relative to control; assay type: functional
# Ehrlich [34] = assay: Antitumor activity against mouse EAC cells allografted in CF1 mouse assessed as DNA content at 0.25 mg/day administered from day 5 to day 7 measured on day 8 by UV-spectrophotometry relative to control; assay type: functional
# Ehrlich [35] = assay: Antitumor activity against mouse EAC cells allografted in CF1 mouse assessed as [methyl-14C]thymidine incorporation to DNA at 0.25 mg/day administered from day 5 to day 7 measured on day 8 by scintillation counting analysis relative to control; assay type: functional
# Ehrlich [36] = assay: Antitumor activity against mouse EAC cells allografted in CF1 mouse assessed as ascitocrit count per mililitre of fluid at 0.25 mg/day administered from day 5 to day 7 measured on day 8 by hemocytometry relative to control; assay type: functional
compound,measurement,setting,value
C[C@@H]1C[C@H]2OC(=O)[C@@H](C)[C@H]2[C@H](O)[C@]2(C)C(=O)C=C[C@@H]12,T/C,W256,207%
same,Survival,Ehrlich [1],Active
same,EC50,[2],0.814 µg/mL
same,T/C,P388,134%
same,inhibition in vivo at 33.3 mg/kg/day,Ehrlich [3],100%
C[C@@H]1C[C@@H]2OC(=O)[C@]3(C)[C@@H]2[C@@H](OC3(C)O)[C@]2(C)C(=O)CC(SC[C@H](N)C(=O)O)[C@@H]12 (stereo partly drawn),Survival,Ehrlich [1],Active
same,EC50,[2],13.7 µg/mL
same,inhibition in vivo at 33.3 mg/kg/day,Ehrlich [3],15.8%
O=C1C=CCC1,Stability,[4],Stable
same,T/C,W256,188%
same,Stability,[5],Stable
same,Survival,Ehrlich [1],Active
same,Stability,[6],Unstable
same,EC50,[2],50 µg/mL
same,inhibition in vivo at 33.3 mg/kg/day,Ehrlich [3],74.8%
C=C1C(=O)O[C@@H]2C[C@@H](C)[C@@H]3C=CC(=O)[C@@]3(C)[C@@H](O)[C@H]12 [HELENALIN],Activity,Ehrlich [7],183%
same,Activity,Ehrlich [8],25%
same,Stability,[9],Stable
same,Activity,[10],inactive
same,Activity,[11],inactive
same,Activity,[12],inactive
same,T/C,W256,316%
same,Activity,Ehrlich [13],70%
same,Stability,[14],Unstable
same,Activity,Ehrlich [15],inactive
same,Activity,Ehrlich [16],30%
same,Activity,Ehrlich [17],35%
same,Activity,[18],inactive
same,EC50,[2],0.1 µg/mL
same,Activity,Ehrlich [19],63%
same,Activity,Ehrlich [20],52%
same,Activity,Ehrlich [21],66%
same,Stability,[22],Stable
same,T/C,P388,127%
same,Activity,[23],inactive
same,Activity,[24],inactive
same,Activity,Ehrlich [25],12%
same,inhibition in vivo at 33.3 mg/kg/day,Ehrlich [3],100%
same,Activity,Ehrlich [26],83%
same,Activity,Ehrlich [27],292%
Sc1ncnc2nc[nH]c12 [MERCAPTOPURINE ANHYDROUS],Survival,Ehrlich [1],Active
same,inhibition in vivo at 33.3 mg/kg/day,Ehrlich [3],99.4%
C[C@@H]1C[C@@H]2OC(=O)[C@]3(C)[C@H]2[C@@H](OC3(C)O)[C@]2(C)C(=O)C=C[C@@H]12 (stereo partly drawn) [TENULIN],Activity,Ehrlich [28],inactive
same,Activity,Ehrlich [7],203%
same,Activity,[10],inactive
same,Activity,Ehrlich [29],92%
same,Activity,[11],inactive
same,Activity,[12],inactive
same,T/C,W256,266%
same,Activity,Ehrlich [30],29%
same,Activity,Ehrlich [31],71%
same,Survival,Ehrlich [1],Active
same,Activity,Ehrlich [32],17%
same,Activity,Ehrlich [33],236%
same,Activity,Ehrlich [34],73%
same,Activity,Ehrlich [17],88%
same,EC50,[2],4.5 µg/mL
same,Activity,Ehrlich [35],9%
same,T/C,P388,131%
same,Activity,[23],inactive
same,Activity,[24],inactive
same,inhibition in vivo at 33.3 mg/kg/day,Ehrlich [3],97.3%
same,Activity,Ehrlich [36],43%
